# Measurements reported in US8664220B2, “Polycyclic compounds as lysophosphatidic acid receptor antagonists” (Amira Pharmaceuticals, Inc., priority 2009, dated 2014).
# Molecular target: T1, human LPA1 (Homo sapiens, UniProt Q92633)
# T1 construct: the full-length cDNA for human LPA1 was obtained by PCR of the reverse transcription reaction; expressed in transfected cells
# Test: LPA1 calcium flux assay
# Assay type: cell-based
# Conditions: human LPA1 expressing CHO cells, stimulated with 10 nM LPA; read-out: HLPA1 Ca Flux IC50
# Experimental: Establishment of a CHO Cell Line Stably Expressing Human LPA1
# A 1.1 kb cDNA encoding the human LPA1 receptor was cloned from human lung.
# Human lung RNA (Clontech Laboratories, Inc. USA) was reverse transcribed using the RETROscript kit (Ambion, Inc.) and the full-length cDNA for human LPA1 was obtained by PCR of the reverse transcription reaction. The nucleotide sequence of the cloned human LPA1 was determined by sequencing and confirmed to be identical to the published human LPA1 sequence (An et al. Biochem. Biophys. Res. Commun. 231:619 (1997). The cDNA was cloned into the pcDNA5/FRT expression plasmid and transfected in CHO cells using lipofectamine 2000 (Invitrogen Corp., USA). Clones stably expressing human LPA1 were selected using hygromycin and identified as cells that show Ca-influx in response to LPA.
# LPA1 and LPA3 Calcium Flux Assays
# Human LPA1 or LPA3 expressing CHO cells are seeded at 20,000-45,000 cells per well in a 96-well poly-D-lysine coated plate one or two days before the assay. Prior to the assay, the cells are washed once with PBS and then cultured in serum-free media overnight. On the day of the assay, a calcium indicator dye (Calcium 4, Molecular Devices) in assay buffer (HBSS with Ca^2+ and Mg^2+ and containing 20 mM Hepes and 0.3% fatty-acid free human serum albumin) is added to each well and incubation continued for 1 hour at 37° C. 10 μl of test compounds in 2.5% DMSO are added to the cells and incubation continued at room temperature for 30 minutes. Cells are the stimulated by the addition of 10 nM LPA and intracellular Ca^2+ measured using the Flexstation 3 (Molecular Devices). IC50s are determined using Graphpad prism analysis of drug titration curves.
# T1 sequence (Q92633 whole entry): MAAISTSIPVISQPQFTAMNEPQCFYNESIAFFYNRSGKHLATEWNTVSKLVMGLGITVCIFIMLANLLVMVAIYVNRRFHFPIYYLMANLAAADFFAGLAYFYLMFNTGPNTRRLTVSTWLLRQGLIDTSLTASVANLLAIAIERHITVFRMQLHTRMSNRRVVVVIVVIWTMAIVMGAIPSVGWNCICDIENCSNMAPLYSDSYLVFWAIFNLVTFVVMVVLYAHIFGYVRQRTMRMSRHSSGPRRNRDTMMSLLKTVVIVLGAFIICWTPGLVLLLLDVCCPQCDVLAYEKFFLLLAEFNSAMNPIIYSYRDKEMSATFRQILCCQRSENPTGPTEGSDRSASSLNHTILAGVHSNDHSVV
row,IC50,SMILES
1,< 0.3 µM,"Cc1noc(-c2ccc(-c3ccc(C4(C(=O)O)CC4)cc3)cc2)c1CN1CCCC(c2ccccc2)C1 (stereo not drawn) [Compound 1-18, 1-{4′-[3-Methyl-4-(3-phenyl-piperidin-1-ylmethyl)-isoxazol-5-yl]-biphenyl-4-yl}-cyclopropanecarboxylic acid]"
2,< 0.3 µM,"Cc1noc(-c2ccc(-c3ccc(C4(C(=O)O)CC4)cc3)cc2)c1CN1CC(c2ccccc2)OC1=O (stereo not drawn) [Compound 1-22, 1-{4′-[3-Methyl-4-(2-oxo-5-phenyl-oxazolidin-3-ylmethyl)-isoxazol-5-yl]-biphenyl-4-yl}-cyclopropanecarboxylic acid]"
3,1 to 50 µM,"Cc1noc(-c2ccc(-c3ccc(C4(C(=O)O)CC4)cc3)cc2)c1-c1nnc(Cc2ccccc2)o1 [Compound 1-24, 1-{4′-[4-(5-Benzyl-[1,3,4]oxadiazol-2-yl)-3-methyl-isoxazol-5-yl]-biphenyl-4-yl}-cyclopropanecarboxylic acid]"
4,< 0.3 µM,"Cc1noc(-c2ccc(-c3ccc(C4(C(=O)O)CC4)cc3)cc2)c1C(O)c1nnc(Cc2ccccc2)o1 (stereo not drawn) [Compound 1-30, 1-(4′-{4-[(5-Benzyl-[1,3,4]oxadiazol-2-yl)-hydroxy-methyl]-3-methyl-isoxazol-5-yl}-biphenyl-4-yl)-cyclopropanecarboxylic acid]"
5,1 to 50 µM,"Cc1noc(-c2ccc(-c3ccc(C4(CC(=O)O)CC4)cc3)cc2)c1C(O)CCCc1ccc(Cc2ccccc2)cc1 (stereo not drawn) [Compound 1-32, [1-(4′-{4-[4-(4-Benzyl-phenyl)-1-hydroxy-butyl]-3-methyl-isoxazol-5-yl}-biphenyl-4-yl)-cyclopropyl]-acetic acid]"
6,1 to 50 µM,"Cc1noc(-c2ccc(-c3ccc(C4(C(=O)O)CC4)cc3)cc2)c1NC1CCN(Cc2ccccc2)CC1 [Compound 1-36, 1-{4′-[4-(1-Benzyl-piperidin-4-ylamino)-3-methyl-isoxazol-5-yl]-biphenyl-4-yl}-cyclopropanecarboxylic acid]"
7,< 0.3 µM,"Cc1noc(-c2ccc(-c3ccc(C4(CC(=O)O)CC4)cc3)cc2)c1C(O)c1nnc(-c2ccccc2)o1 (stereo not drawn) [Compound 1-39, [1-(4′-{4-[Hydroxy-(5-phenyl-[1,3,4]oxadiazol-2-yl)-methyl]-3-methyl-isoxazol-5-yl}-biphenyl-4-yl)-cyclopropyl]-acetic acid]"
8,< 0.3 µM,"Cc1noc(-c2ccc(-c3ccc(C4(CC(=O)O)CC4)cc3)cc2)c1NC(C)c1cc(-c2ccccc2)no1 (stereo not drawn) [Compound 1-42, [1-(4′-{3-Methyl-4-[1-(3-phenyl-isoxazol-5-yl)-ethylamino]-isoxazol-5-yl}-biphenyl-4-yl)-cyclopropyl]-acetic acid]"
9,0.3 to 1 µM,"Cc1noc(-c2ccc(-c3ccc(C4(CC(=O)O)CC4)cc3)cc2)c1NC(C)Cc1ccc(OCc2ccc(C(F)(F)F)cc2)cc1 (stereo not drawn) [Compound 1-45, {1-[4′-(3-Methyl-4-{1-methyl-2-[4-(4-trifluoromethyl-benzyloxy)-phenyl]-ethylamino}-isoxazol-5-yl)-biphenyl-4-yl]-cyclopropyl}-acetic acid]"
10,< 0.3 µM,"Cc1noc(-c2ccc(-c3ccc(CC(=O)O)cc3)cc2)c1C(O)c1cn(Cc2ccccc2)nn1 (stereo not drawn) [Compound 1-48, (4′-{4-[(1-Benzyl-1H-[1,2,3]triazol-4-yl)-hydroxy-methyl]-3-methyl-isoxazol-5-yl}-biphenyl-4-yl)-acetic acid]"
11,1 to 50 µM,"Cc1noc(-c2ccc(-c3ccc(C4(C(=O)O)CC4)cc3)cc2)c1C(O)c1cn(Cc2cccc(C(F)(F)F)c2)nn1 (stereo not drawn) [Compound 1-50, 1-[4′-(4-{Hydroxy-[1-(3-trifluoromethyl-benzyl)-1H-[1,2,3]triazol-4-yl]-methyl}-3-methyl-isoxazol-5-yl)-biphenyl-4-yl]-cyclopropanecarboxylic acid]"
12,> 50 µM,"Cc1noc(-c2ccc(-c3ccc(CC(=O)O)cc3)cc2)c1C(O)c1cn(Cc2cccc(C(F)(F)F)c2)nn1 (stereo not drawn) [Compound 1-51, [4′-(4-{Hydroxy-[1-(3-trifluoromethyl-benzyl)-1H-[1,2,3]triazol-4-yl]-methyl}-3-methyl-isoxazol-5-yl)-biphenyl-4-yl]acetic acid]"

# The remaining lines, values behind:
row,SMILES,IC50
1,"Cc1noc(-c2ccc(-c3ccc(C4(C(=O)O)CC4)cc3)cc2)c1CN1CCC(c2ccccc2)C1 (stereo not drawn) [Compound 1-17, 1-{4′-[3-Methyl-4-(3-phenyl-pyrrolidin-1-ylmethyl)-isoxazol-5-yl]-biphenyl-4-yl}-cyclopropanecarboxylic acid]",< 0.3 µM
2,"Cc1noc(-c2ccc(-c3ccc(C4(C(=O)O)CC4)cc3)cc2)c1CNc1nnc(-c2ccccc2)o1 [Compound 1-19, 1-(4′-{3-Methyl-4-[(5-phenyl-[1,3,4]oxadiazol-2-ylamino)-methyl]-isoxazol-5-yl}-biphenyl-4-yl)-cyclopropanecarboxylic acid]",< 0.3 µM
3,"Cc1noc(-c2ccc(-c3ccc(C4(C(=O)O)CC4)cc3)cc2)c1Cn1nncc1-c1ccccc1 [Compound 1-20, 1-{4′-[3-Methyl-4-(5-phenyl-[1,2,3]triazol-1-ylmethyl)-isoxazol-5-yl]-biphenyl-4-yl}-cyclopropanecarboxylic acid]",0.3 to 1 µM
4,"Cc1noc(-c2ccc(-c3ccc(C4(C(=O)O)CC4)cc3)cc2)c1Cn1nnc(-c2ccccc2)n1 [Compound 1-21, 1-{4′-[3-Methyl-4-(5-phenyl-tetrazol-2-ylmethyl)-isoxazol-5-yl]-biphenyl-4-yl}-cyclopropanecarboxylic acid]",< 0.3 µM
5,"Cc1noc(-c2ccc(-c3ccc(C4(C(=O)O)CC4)cc3)cc2)c1Cn1cc(-c2ccccc2)cn1 [Compound 1-23, 1-{4′-[3-Methyl-4-(4-phenyl-pyrazol-1-ylmethyl)-isoxazol-5-yl]-biphenyl-4-yl}-cyclopropanecarboxylic acid]",< 0.3 µM
6,"Cc1noc(-c2ccc(-c3ccc(C4(C(=O)O)CC4)cc3)cc2)c1C1CN(Cc2ccccc2)C(=O)O1 (stereo not drawn) [Compound 1-28, 1-{4′-[4-(3-Benzyl-2-oxo-oxazolidin-5-yl)-3-methyl-isoxazol-5-yl]-biphenyl-4-yl}-cyclopropanecarboxylic acid]",< 0.3 µM
7,"Cc1noc(-c2ccc(-c3ccc(C4(C(=O)O)CC4)cc3)cc2)c1Cc1nnc(Cc2ccccc2)o1 [Compound 1-29, 1-{4′-[4-(5-Benzyl-[1,3,4]oxadiazol-2-ylmethyl)-3-methyl-isoxazol-5-yl]-biphenyl-4-yl}-cyclopropanecarboxylic acid]",< 0.3 µM
8,"Cc1noc(-c2ccc(-c3ccc(C4(C(=O)O)CC4)cc3)cc2)c1Cc1cn(Cc2ccccc2)nn1 [Compound 1-31, 1-{4′-[4-(1-Benzyl-1H-[1,2,3]triazol-4-ylmethyl)-3-methyl-isoxazol-5-yl]-biphenyl-4-yl}-cyclopropanecarboxylic acid]",< 0.3 µM
9,"Cc1noc(-c2ccc(-c3ccc(C4(CC(=O)O)CC4)cc3)cc2)c1C(O)CCCc1ccc(Oc2ccccc2)cc1 (stereo not drawn) [Compound 1-33, [1-(4′-{-4-[1-Hydroxy-4-(4-phenoxy-phenyl)-butyl]-3-methyl-isoxazol-5-yl}-biphenyl-4-yl)-cyclopropyl]-acetic acid]",1 to 50 µM
10,"Cc1noc(-c2ccc(-c3ccc(C4(CC(=O)O)CC4)cc3)cc2)c1NC1CCN(Cc2ccccc2)CC1 [Compound 1-37, (1-{4′-[4-(1-Benzyl-piperidin-4-ylamino)-3-methyl-isoxazol-5-yl]-biphenyl-4-yl}-cyclopropyl)-acetic acid]",1 to 50 µM
11,"Cc1noc(-c2ccc(-c3ccc(C4(C(=O)O)CC4)cc3)cc2)c1C(O)c1nnc(-c2ccccc2)o1 (stereo not drawn) [Compound 1-38, 1-(4′-{4-[Hydroxy-(5-phenyl-[1,3,4]oxadiazol-2-yl)-methyl]-3-methyl-isoxazol-5-yl}-biphenyl-4-yl)-cyclopropanecarboxylic acid]",< 0.3 µM
12,"Cc1noc(-c2ccc(-c3ccc(C4(C(=O)O)CC4)cc3)cc2)c1C(O)c1nnc(Cc2cccc(C(F)(F)F)c2)o1 (stereo not drawn) [Compound 1-46, 1-[4′-(4-{Hydroxy-[5-(3-trifluoromethyl-benzyl)-[1,3,4]oxadiazol-2-yl]-methyl}-3-methyl-isoxazol-5-yl)-biphenyl-4-yl]-cyclopropanecarboxylic acid]",0.3 to 1 µM
13,"Cc1noc(-c2ccc(-c3ccc(C4(C(=O)O)CC4)cc3)cc2)c1C(NS(C)(=O)=O)c1cn(Cc2ccccc2)nn1 (stereo not drawn) [Compound 1-47, 1-(4′-{4-[(1-Benzyl-1H-[1,2,3]triazol-4-yl)-methanesulfonylamino-methyl]-3-methyl-isoxazol-5-yl}-biphenyl-4-yl)-cyclopropanecarboxylic acid]",> 50 µM
14,"Cc1noc(-c2ccc(-c3ccc(CCC(=O)O)cc3)cc2)c1C(O)c1cn(Cc2ccccc2)nn1 (stereo not drawn) [Compound 1-49, 3-(4′-{4-[(1-Benzyl-1H-[1,2,3]triazol-4-yl)-hydroxy-methyl]-3-methyl-isoxazol-5-yl}-biphenyl-4-yl)-propionic acid]",< 0.3 µM
15,"Cc1noc(-c2ccc(-c3ccc(CCC(=O)O)cc3)cc2)c1C(O)c1cn(Cc2cccc(C(F)(F)F)c2)nn1 (stereo not drawn) [Compound 1-52, 3-[4′-(4-{Hydroxy-[1-(3-trifluoromethyl-benzyl)-1H-[1,2,3]triazol-4-yl]-methyl}-3-methyl-isoxazol-5-yl)-biphenyl-4-yl]propionic acid]",1 to 50 µM
